Assay results published in patent US8586611B2 (priority 2005, dated 2013).

How the values were obtained:
Format in all cases: in vivo
Plasmopara viticola = assay: Test B: grape downy mildew, spray 24 h after inoculation (disease rating, 100 = 100% disease control); details: spray 24 h after inoculation, compounds without asterisk (not 40 or 10 ppm)
Outline: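 This is a curative spray test, applied 24 h after inoculation. Compounds in 50/50 acetone–water with 250 ppm Trem 014 surfactant were sprayed to run-off on P. viticola-infected seedlings, with 200 ppm equating to 500 g/ha. Plants were kept 5 days in a 20 °C growth chamber, then 24 h humid, and scored 0–100 for disease control relative to controls.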

Phytophthora infestans [1] = assay: whole plant or invertebrate; details: tomato late blight; spray 17 h after inoculation; compounds without asterisk (not 40 or 10 ppm)
Phytophthora infestans [2] = assay: whole plant or invertebrate; details: tomato late blight; spray the day before inoculation; compounds without asterisk (not 40 or 10 ppm)
[3] = system: Erysiphe graminis f. sp. tritici; assay: Test E: wheat powdery mildew, spray the day before inoculation (disease rating, 100 = 100% disease control); details: spray the day before inoculation, compounds without asterisk (not 40 or 10 ppm)
Outline: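 Protective test: spores of E. graminis f. sp. tritici dusted on wheat seedlings one day after run-off spraying of test suspension (acetone/water with 250 ppm surfactant; 200 ppm = 500 g/ha). Ratings after 7 days in growth chamber at 20° C, 100 = full control, 0 = none, relative to controls.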

Compound | Test B disease rating (100 = 100% disease control, 0 = no disease control) (Plasmopara viticola) [%] | Test D disease rating (100 = 100% disease control, 0 = no disease control) (Phytophthora infestans [1]) [%] | Test C disease rating (100 = 100% disease control, 0 = no disease control) (Phytophthora infestans [2]) [%] | Test E disease rating (100 = 100% disease control, 0 = no disease control) [3] [%]
C[C@H](c1ccccc1)N(C)C(=O)c1csc(C2CCN(C(=O)Cc3cccs3)CC2)n1 [compound 88] | 43 | 0 | 33 | 0
COC(=O)Cc1ccccc1CC(=O)N1CCC(c2nc(C(=O)N(C)[C@H](C)c3ccccc3)cs2)CC1 [compound 90] | 17 | 9 | 26 | 0
Cc1nc(CC(=O)N2CCC(c3nc(C(=O)N(C)[C@H](C)c4ccccc4)cs3)CC2)cs1 [compound 91] | 16 | 79 | 99 | 0
C[C@H](c1ccccc1)N(C)C(=O)c1csc(C2CCN(C(=O)Cc3cc(C(C)(C)C)no3)CC2)n1 [compound 93] | 9 | 0 | 26 | 0
Cc1ccc(C)c(CC(=O)N2CCC(c3nc(C(=O)N(C)C(c4ccccc4)C(C)C)cs3)CC2)c1 (stereo not drawn) [compound 96] | 98 | 49 | 100 | 0
Cc1ccc(C)c(CC(=O)N2CCC(c3nc(C(=O)N(C)C(CC(C)C)c4ccccc4)cs3)CC2)c1 (stereo not drawn) [compound 97] | 53 | 0 | 86 | 0
Cc1ccc(C)c(CC(=O)N2CCC(c3nc(C(=O)N(C)C4CCc5ccccc5C4)cs3)CC2)c1 (stereo not drawn) [compound 98] | 0 | 0 | 84 | 0
Cc1ccc(C)c(CC(=O)N2CCC(c3nc(C(=O)N(C)C4CCCc5ccccc54)cs3)CC2)c1 (stereo not drawn) [compound 99] | 97 | 99 | 100 | 0
Cc1ccc(C)c(CC(=O)N2CCC(c3nc(C(=O)N(C)C4CCc5ccccc54)cs3)CC2)c1 (stereo not drawn) [compound 100] | 94 | 99 | 100 | 0
Cc1cc(C)n(CC(=O)N2CCC(c3nc(C(=O)N(C)[C@H](C)c4ccccc4)cs3)CC2)c1 [compound 101] | 0 | 8 | 70 | 0
Cc1ccc(C)c(CC(=O)N2CCC(c3nc(C(=O)N(C)[C@H](C)c4ncc(Cl)cc4Cl)cs3)CC2)c1 [compound 111] | 96 | 37 | 99 | 98
Cc1ccc(C)c(CC(=O)N2CCC(c3nc(C(=O)N(C)C(C)c4cc(C)sc4C)cs3)CC2)c1 (stereo not drawn) [compound 112] | 93 | 99 | 100 | 95
